Drawing on patent US9873709B2 (priority 2013, dated 2018), this text covers Ki and IC50 for 24 compounds.

The target in experiment [1] is isolated recombinant JAK2 kinase domain (Homo sapiens (Human), UniProt O60674). The conditions noted are these: read-out: JAK2 Ki.
Experiment [2] concerns JAK1-dependent STAT6 phosphorylation downstream of IL-13 stimulation in TF-1 human erythroleukemia cells. Briefly: cells. The conditions noted are these: TF-1, read-out: IL-13-pSTAT6 IC50.
In experiment [3] the test system is JAK1-dependent STAT6 phosphorylation downstream of IL-13 stimulation in BEAS-2B human bronchial epithelial cells. Briefly: cells. The conditions noted are these: read-out: IL13-pSTAT6 BEASB2B IC50.
Description: Inhibitor potency (EC50) was determined in cell-based assays designed to measure JAK1 dependent STAT phosphorylation.
Prior to use in the assays, TF-1 cells were starved of GM-CSF overnight in OptiMEM medium (Life Technologies, Grand Island, N.Y.) supplemented with 0.5% charcoal/dextran stripped fetal bovine serum (FBS), 0.1 mM non-essential amino acids (NEAA), and 1 mM sodium pyruvate. The assays were run in 384-well plates in serum-free OptiMEM medium using 300,000 cells per well. In a second assay approach, BEAS-2B human bronchial epithelial cells obtained from ATCC were plated at 100,000 cells per well of a 96-well plate one day prior to the experiment. The BEAS-2B assay was run in complete growth medium (bronchial epithelial basal medium plus bulletkit; Lonza; Basel, Switzerland).
Test compounds were serially diluted 1:2 in DMSO and then diluted 1:50 in medium just before use. Diluted compounds were added to the cells, for a final DMSO concentration of 0.2%, and incubated for 30 min (for the TF-1 assay) or 1 hr (for the BEAS-2B assay) at 37° C. Then, cells were stimulated with human recombinant cytokine at their respective EC90 concentrations, as previously determined for each individual lot. […] The resultant samples were frozen in the plates at −80° C. Compound mediated inhibition of STAT6 phosphorylation was measured in the cell lysates using MesoScale Discovery (MSD) technology (Gaithersburg, Md.).
Where [4] appears, read: isolated recombinant JAK2 kinase domain, 25 μM ATP.

The structures appear in SMILES notation. Like-named read-outs stand apart in the source and are kept apart here.

Chain of isolated recombinant JAK2 kinase domain (O60674 849-1124): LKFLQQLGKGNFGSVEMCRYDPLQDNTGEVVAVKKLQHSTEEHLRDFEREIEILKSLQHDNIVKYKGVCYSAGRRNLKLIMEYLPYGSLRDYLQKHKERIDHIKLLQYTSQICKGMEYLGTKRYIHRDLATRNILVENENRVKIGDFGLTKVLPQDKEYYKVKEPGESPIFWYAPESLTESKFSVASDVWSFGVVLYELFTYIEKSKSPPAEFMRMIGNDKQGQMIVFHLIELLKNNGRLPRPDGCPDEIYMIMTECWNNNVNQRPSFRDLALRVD

In the case of `COCCOc1cc(COC2CCN(c3cccn4nc(Nc5ccc(C(=O)N(C)C6CCN(C)CC6)cc5)nc34)CC2)ccn1` [Example 1-44, 4-[[8-[4-[[2-(2-methoxyethoxy)-4-pyridyl]methoxy]-1-piperidyl]-[1,2,4]triazolo[1,5-a]pyridin-2-yl]amino]-N-methyl-N-(1-methyl-4-piperidyl)benzamide], in experiment [1] (setting [4]), the Ki (usually the equilibrium dissociation constant of an inhibitor or competing ligand from its target) is 0.00703 µM. The half-maximal inhibitory concentration (IC50) (in general, the concentration that gives 50% inhibition) in experiment [2] came out at 0.168 µM. For `CN1CCN(C2CCN(C(=O)c3ccc(Nc4nc5c(N6CCC(O)(c7ccc(Cl)cc7)CC6)cccn5n4)cc3)CC2)CC1` [Example 1-117, [4-[[8-[4-(4-chlorophenyl)-4-hydroxy-1-piperidyl]-[1,2,4]triazolo[1,5-a]pyridin-2-yl]amino]phenyl]-[4-(4-methylpiperazin-1-yl)-1-piperidyl]methanone], in that order: 0.00085 µM and 0.0292 µM. Regarding `CC1CN(C2CCN(C(=O)c3ccc(Nc4nc5c(N6CCC(O)(c7ccc(Cl)cc7)CC6)cccn5n4)cc3)CC2)CC(C)O1` (stereo not shown) [Example 1-118, [4-[[8-[4-(4-chlorophenyl)-4-hydroxy-1-piperidyl]-[1,2,4]triazolo[1,5-a]pyridin-2-yl]amino]phenyl]-[4-(2,6-dimethylmorpholin-4-yl)-1-piperidyl]methanone], in experiment [3], the IC50 came out at 0.112 µM. Consider `O=C(c1ccc(Nc2nc3c(N4CCC(O)(c5ccc(Cl)cc5)CC4)cccn3n2)cc1)N1CCN(Cc2cccnc2)CC1` [Example 1-123, [4-[[8-[4-(4-chlorophenyl)-4-hydroxy-1-piperidyl]-[1,2,4]triazolo[1,5-a]pyridin-2-yl]amino]phenyl]-[4-(3-pyridylmethyl)piperazin-1-yl]methanone], for which the inhibition constant Ki in experiment [1] (setting [4]) turned out to be 0.0007 µM. In addition, the IC50 in experiment [2] is 0.0258 µM. With `CC(C)N1CCC(CN(C)C(=O)c2ccc(Nc3nc4c(N5CCC(O)(c6ccc(Cl)cc6)CC5)cccn4n3)cc2)C1` (stereo not shown) [Example 1-129, 4-[[8-[4-(4-chlorophenyl)-4-hydroxy-1-piperidyl]-[1,2,4]triazolo[1,5-a]pyridin-2-yl]amino]-N-[(1-isopropylpyrrolidin-3-yl)methyl]-N-methyl-benzamide], the Ki in experiment [1] (setting [4]) was 0.00174 µM. Also, the IC50 in experiment [2] is 0.0377 µM.

With `CN(Cc1cccnc1)C(=O)c1ccc(Nc2nc3c(N4CCC(O)(c5ccc(Cl)cc5)CC4)cccn3n2)cc1` [Example 1-138, 4-[[8-[4-(4-chlorophenyl)-4-hydroxy-1-piperidyl]-[1,2,4]triazolo[1,5-a]pyridin-2-yl]amino]-N-methyl-N-(3-pyridylmethyl)benzamide], the Ki in experiment [1] (setting [4]) was determined as 0.00356 µM. The IC50 in experiment [2] came to 0.135 µM. Taken in the same sequence, the figures for `CN(C)CCN1CCN(C(=O)c2ccc(Nc3nc4c(N5CCC(O)(c6ccc(Cl)cc6)CC5)cccn4n3)cc2)CC1` [Example 1-139, [4-[[8-[4-(4-chlorophenyl)-4-hydroxy-1-piperidyl]-[1,2,4]triazolo[1,5-a]pyridin-2-yl]amino]phenyl]-[4-[2-(dimethylamino)ethyl]piperazin-1-yl]methanone] were 0.00195 µM and 0.0206 µM. As for `O=C(c1ccc(Nc2nc3c(N4CCC(O)(c5ccc(Cl)cc5)CC4)cccn3n2)cc1)N1CCCC1c1ccncc1` (stereo not shown) [Example 1-147, [4-[[8-[4-(4-chlorophenyl)-4-hydroxy-1-piperidyl]-[1,2,4]triazolo[1,5-a]pyridin-2-yl]amino]phenyl]-[2-(4-pyridyl)pyrrolidin-1-yl]methanone], in experiment [1] (setting [4]), the Ki worked out at 0.00141 µM. The IC50 in experiment [2] worked out at 0.0665 µM. For `CNC(=O)C1CN(C(=O)c2ccc(Nc3nc4c(N5CCC(O)(c6ccc(Cl)cc6)CC5)cccn4n3)cc2)CCN1Cc1ccccc1` (stereo not shown) [Example 1-153, 1-benzyl-4-[4-[[8-[4-(4-chlorophenyl)-4-hydroxy-1-piperidyl]-[1,2,4]triazolo[1,5-a]pyridin-2-yl]amino]benzoyl]-N-methyl-piperazine-2-carboxamide], in that order: 0.00114 µM and 0.026 µM. Taken in the same sequence, the figures for `CN1CCC(CCNC(=O)c2ccc(Nc3nc4c(N5CCC(O)(c6ccc(Cl)cc6)CC5)cccn4n3)cc2)CC1` [Example 1-154, 4-[[8-[4-(4-chlorophenyl)-4-hydroxy-1-piperidyl]-[1,2,4]triazolo[1,5-a]pyridin-2-yl]amino]-N-[2-(1-methyl-4-piperidyl)ethyl]benzamide] were 0.00064 µM and 0.0373 µM. Taken in the same sequence, the figures for `N#CCCN1CCN(C(=O)c2ccc(Nc3nc4c(N5CCC(O)(c6ccc(Cl)cc6)CC5)cccn4n3)cc2)CC1` [Example 1-167, 3-[4-[4-[[8-[4-(4-chlorophenyl)-4-hydroxy-1-piperidyl]-[1,2,4]triazolo[1,5-a]pyridin-2-yl]amino]benzoyl]piperazin-1-yl]propanenitrile] were 0.00286 µM and 0.0121 µM.

For `CN1CCCC(CN(C)C(=O)c2ccc(Nc3nc4c(N5CCC(O)(c6ccc(Cl)cc6)CC5)cccn4n3)cc2)C1` (stereo not shown) [Example 1-170, 4-[[8-[4-(4-chlorophenyl)-4-hydroxy-1-piperidyl]-[1,2,4]triazolo[1,5-a]pyridin-2-yl]amino]-N-methyl-N-[(1-methyl-3-piperidyl)methyl] benzamide], the Ki in experiment [1] (setting [4]) amounted to 0.00098 µM. Also, the IC50 in experiment [2] is 0.0155 µM.

For the compound `O=C(NCCN1CCCCC1)c1ccc(Nc2nc3c(N4CCC(O)(c5ccc(Cl)cc5)CC4)cccn3n2)cc1` [Example 1-173, 4-[[8-[4-(4-chlorophenyl)-4-hydroxy-1-piperidyl]-[1,2,4]triazolo[1,5-a]pyridin-2-yl]amino]-N-[2-(1-piperidyl)ethyl]benzamide], in experiment [1] (setting [4]), the Ki worked out at 0.00245 µM. Further, the IC50 in experiment [2] is 0.0231 µM. For `CNC(=O)C1CN(C(C)C)CCN1C(=O)c1ccc(Nc2nc3c(N4CCC(O)(c5ccc(Cl)cc5)CC4)cccn3n2)cc1` (stereo not shown) [Example 1-174, 1-[4-[[8-[4-(4-chlorophenyl)-4-hydroxy-1-piperidyl]-[1,2,4]triazolo[1,5-a]pyridin-2-yl]amino]benzoyl]-4-isopropyl-N-methyl-piperazine-2-carboxamide], in that order: 0.00231 µM and 0.0311 µM.

Take `CN1CCC(OC(=O)c2ccc(Nc3nc4c(N5CCC(O)(c6ccc(Cl)cc6)CC5)cccn4n3)cc2)CC1` [Example 1-178, (1-methyl-4-piperidyl) 4-[[8-[4-(4-chlorophenyl)-4-hydroxy-1-piperidyl]-[1,2,4]triazolo[1,5-a]pyridin-2-yl]amino]benzoate]: the Ki in experiment [1] (setting [4]) came out at 0.00107 µM. The half-maximal inhibitory concentration (IC50) in experiment [2] came out at 0.0983 µM. Consider `CN1CCC(N(C)C(=O)c2ccc(Nc3nc4c(N5CCC(CO)(c6ccc(Cl)cc6)CC5)cccn4n3)cc2)CC1` [Example 1-246], for which the Ki in experiment [1] was determined as 0.00033 µM. Besides, the IC50 in experiment [2] came out at 0.0054 µM. As to `CN1CCC(N(C)C(=O)c2ccc(Nc3nc4c(N5CCC(c6ccc(Cl)cc6)(C(O)C(F)(F)F)CC5)cccn4n3)cc2)CC1` (stereo not shown) [Example 1-253, 4-[[8-[4-(4-chlorophenyl)-4-(2,2,2-trifluoro-1-hydroxy-ethyl)-1-piperidyl]-[1,2,4]triazolo[1,5-a]pyridin-2-yl]amino]-N-methyl-N-(1-methyl-4-piperidyl)benzamide], the IC50 in experiment [3] was determined as 0.418 µM.

For the compound `CN1CCC(N(C)C(=O)c2ccc(Nc3nc4c(N5CCC(c6ccc(Cl)cc6)(C(O)CO)CC5)cccn4n3)cc2)CC1` (stereo not shown) [Example 1-270, 4-[[8-[4-(4-chlorophenyl)-4-(1,2-dihydroxyethyl)-1-piperidyl]-[1,2,4]triazolo[1,5-a]pyridin-2-yl]amino]-N-methyl-N-(1-methyl-4-piperidyl)benzamide], the IC50 in experiment [3] turned out to be 0.114 µM. Same read-out and setting: then `O=C(Cn1cc(Nc2nc3c(N4CCC(CO)(c5ccc(Cl)cc5)CC4)cccn3n2)cn1)N1CCC(CN2CCOCC2)CC1` [Example 1-289, 2-[4-[[8-[4-(4-chlorophenyl)-4-(hydroxymethyl)-1-piperidyl]-[1,2,4]triazolo[1,5-a]pyridin-2-yl]amino]pyrazol-1-yl]-1-[4-(morpholinomethyl)-1-piperidyl]ethanone], with 0.0081 µM. Regarding `CNC1CCN(C(=O)Cn2cc(Nc3nc4c(N5CCC(CO)(c6ccc(Cl)cc6)CC5)cccn4n3)cn2)CC1` [Example 1-291, 2-[4-[[8-[4-(4-chlorophenyl)-4-(hydroxymethyl)-1-piperidyl]-[1,2,4]triazolo[1,5-a]pyridin-2-yl]amino]pyrazol-1-yl]-1-[4-(methylamino)-1-piperidyl]ethanone], the IC50 in experiment [3] turned out to be 0.525 µM.

With `CN1CCC(N(C)C(=O)c2ccc(Nc3nc4c(C5=CCC(CC#N)(c6ccc(Cl)cc6)CC5)cccn4n3)cc2)CC1` (stereo not shown) [Example 1-294, 4-([8-[4-(4-chlorophenyl)-4-(cyanomethyl)cyclohex-1-en-1-yl]-[1,2,4]triazolo[1,5-a]pyridin-2-yl]amino)-N-methyl-N-(1-methylpiperidin-4-yl)benzamide], the Ki in experiment [1] came out at 0.0004 µM. Further, the IC50 in experiment [2] was determined as 0.0627 µM. Taken in the same sequence, the figures for `CC(C)CN1CCC(N(C)C(=O)Cn2cc(Nc3nc4c(C5=CCN(C(=O)CCC(F)(F)F)CC5)cccn4n3)cn2)CC1` [Example 1-297, N-methyl-N-[1-(2-methylpropyl)piperidin-4-yl]-2-[4-([8-[1-(4,4,4-trifluorobutanoyl)-1,2,3,6-tetrahydropyridin-4-yl]-[1,2,4]triazolo[1,5-a]pyridin-2-yl]amino)-1H-pyrazol-1-yl]acetamide] were 0.00944 µM and 0.0367 µM.

For `CN1CCC(N(C)C(=O)c2ccc(Nc3nc4c(N5CCC(CC(N)=O)(c6ccc(Cl)cc6)CC5)cccn4n3)cc2)CC1` [Example 1-298], the Ki in experiment [1] (setting [4]) was found to be 0.00045 µM. Moreover, the IC50 in experiment [2] worked out at 0.125 µM. For `CN1CCC(N(C)C(=O)c2ccc(Nc3nc4c(N5CCC(CC(=O)N(C)C)(c6ccc(Cl)cc6)CC5)cccn4n3)cc2)CC1` [Example 1-300, 4-([8-[4-(4-chlorophenyl)-4-[(dimethylcarbamoyl)methyl]piperidin-1-yl]-[1,2,4]triazolo[1,5-a]pyridin-2-yl]amino)-N-methyl-N-(1-methylpiperidin-4-yl)benzamide], in that order: 0.00055 µM and 0.0263 µM.
